# Experimental data published in ChEMBL document CHEMBL3046468, “Synthesis, characterization and in vitro hydrolysis studies of ester and amide prodrugs of dexibuprofen” (Med Chem Res, 2012).
# How the values were obtained:
# [1] = Solubility of the compound in chloroform at 5 mg; type: physicochemical
# [2] = Half life in 80% Homo sapiens (human) plasma at pH 7.4 at 10 mg; type: ADME, cell-free; settings: 80% human plasma
# [3] = Half life in PBS at pH 7.4 by spectrophotometric analysis; type: ADME
# [4] = Protein binding to 6% egg albumin at 20 ug/ml; settings: read-out: PPB (converted)
# [5] = Solubility of the compound in 0.1 N NaOH at 5 mg; type: physicochemical
# [6] = Solubility of the compound in ethyl acetate at 5 mg; type: physicochemical
# [7] = Solubility of the compound in DMF at 5 mg; type: physicochemical
# [8] = Solubility of the compound in 0.1 N HCl at 5 mg; type: physicochemical; settings: buffer
# [9] = Prodrug activation in simulated gastric fluid assessed as dexibuprofen regeneration rate at 10 mg by HPLC analysis; settings: in vitro
# [10] = Solubility of the compound in ethanol at 5 mg; type: physicochemical
# [11] = Solubility of the compound in ethanol; type: physicochemical
# [12] = Solubility of the compound in chloroform; type: physicochemical
# [13] = Solubility of the compound in DMF; type: physicochemical
# [14] = Solubility of the compound in 0.1 N NaOH; type: physicochemical
# [15] = Solubility of the compound in ethyl acetate; type: physicochemical
# [16] = Solubility of the compound in 0.1 N HCl; type: physicochemical; settings: buffer
solubility [1],half-life [2] [h],half-life [3] [h],fraction unbound at 20 ug/ml [4],solubility [5],solubility [6],solubility [7],solubility [8],Drug metabolism [9],solubility [10],solubility [11],solubility [12],solubility [13],solubility [14],solubility [15],solubility [16],SMILES
soluble,0.65,2.1,0.63,soluble,soluble,soluble,Insoluble,Not Active,soluble,–,–,–,–,–,–,CC(C)Cc1ccc(C(C)C(=O)OCc2ccccc2)cc1 (stereo unspecified)
soluble,0.883,2.97,0.53,soluble,soluble,soluble,Insoluble,Not Active,soluble,–,–,–,–,–,–,COC(=O)C(Cc1ccccc1)NC(=O)C(C)c1ccc(CC(C)C)cc1 (stereo unspecified)
soluble,0.483,2.1,0.65,soluble,soluble,soluble,Insoluble,Not Active,soluble,–,–,–,–,–,–,CCCCOC(=O)C(C)c1ccc(CC(C)C)cc1 (stereo unspecified)

# The next lines start with the molecule.
SMILES,solubility [1],half-life [2] [h],half-life [3] [h],fraction unbound at 20 ug/ml [4],solubility [5],solubility [6],solubility [7],solubility [8],Drug metabolism [9],solubility [10],solubility [11],solubility [12],solubility [13],solubility [14],solubility [15],solubility [16]
CC(C)Cc1ccc(C(C)C(=O)OC(C)C)cc1 (stereo unspecified),soluble,0.65,2.1,0.35,soluble,soluble,soluble,Insoluble,Not Active,soluble,–,–,–,–,–,–
COC(=O)C(C)NC(=O)C(C)c1ccc(CC(C)C)cc1 (stereo unspecified),soluble,0.883,2.58,0.64,soluble,soluble,soluble,Insoluble,Not Active,soluble,–,–,–,–,–,–
CC(C)Cc1ccc(C(C)C(=O)OCC(O)CO)cc1 (stereo unspecified),soluble,0.483,2.1,0.77,soluble,soluble,soluble,Insoluble,Not Active,soluble,–,–,–,–,–,–
COC(=O)C(NC(=O)C(C)c1ccc(CC(C)C)cc1)C(C)C (stereo unspecified),soluble,0.883,3.3,0.55,soluble,soluble,soluble,Insoluble,Not Active,soluble,–,–,–,–,–,–
CCC(C)OC(=O)C(C)c1ccc(CC(C)C)cc1 (stereo unspecified),soluble,0.65,2.1,0.33,soluble,soluble,soluble,Insoluble,Not Active,soluble,–,–,–,–,–,–
COC(=O)C(CC(C)C)NC(=O)C(C)c1ccc(CC(C)C)cc1 (stereo unspecified),soluble,0.883,3.16,0.49,soluble,soluble,soluble,Insoluble,Not Active,soluble,–,–,–,–,–,–
CC(C)Cc1ccc([C@H](C)C(=O)O)cc1 [DEXIBUPROFEN],–,–,–,–,–,–,–,–,–,–,soluble,soluble,soluble,soluble,soluble,Insoluble
COC(=O)CNC(=O)C(C)c1ccc(CC(C)C)cc1 (stereo unspecified),soluble,0.883,2.58,0.76,soluble,soluble,soluble,Insoluble,Not Active,soluble,–,–,–,–,–,–
